Legend:
[1] = test system: synovial cells (OASC) from osteoarthritis (OA) patients; assay: Synovial cell proliferation inhibition (MTT method), OASC; assay type: cell-based, human; conditions: MTT on days 4, 8 and 12, HA/Zn and Na-HA 10-300 μg/ml, Zn at 1/10 of these, vs non-drug addition group
Protocol: (§1) The effects of the complex of hyaluronic acid and zinc (HA/Zn) of the present invention, and the effects of sodium hyaluronate (Na-HA) and zinc (Zn) as comparison controls were tested on synovial cells (RASC) from rheumatoid arthritis (RA) patients, synovial cells (OASC) from osteoarthritis (OA) patients, and synovial cells (TASC) from traumatic arthritis (TA) patients.
(§2) The test substances used consisted of HA/Zn (Lot No. A65242, 1% solution, Gedeon-Richter, Ltd.), sodium hyaluronate (Na-HA, Lot No. KK4001, Q.P. Corp.), and zinc chloride (Zn, Lot No. ESH1413, Wako Pure Chemical Ind., Ltd.). Quantitative values of the contents of hyaluronic acid and zinc contained in the above-mentioned HA/Zn solution (specific gravity; d^2020=1.0134) were determined in advance. Since the amount of hyaluronic acid was 99% (105.0% when calculated as sodium hyaluronate) and the amount of zinc was 1.07 mg/ml when the above-mentioned 1% is assigned a value of 100, the weight ratio of hyaluronic acid to zinc in said HA/Zn was considered to be 10:1 (Na-HA:Zn). The test substances were tested at concentrations of 10 μg/ml, 30 μg/ml, 100 μg/ml, 150 μg/ml, 200 μg/ml, 250 μg/ml and 300 μg/ml for HA/Zn, the same concentrations as HA/Zn for Na-HA, and at 1/10 the concentrations of HA/Zn for Zn.
(§3) Synovial membrane tissue was sampled from the knee joint of rheumatoid arthritis (RA) patients (5 cases, 65.6±10.6 years old) and osteoarthritis (OA) patients (6 cases, 73.4±8.9 years old) during artificial joint replacement surgery, and from the knee joint of traumatic arthritis (TA) patients (6 cases, 25.6±6.7 years old) during arthroscopic surgery. […]
(§4) The synovial cells (SC) were inoculated into a microplate (96 wells, Iwaki) at a concentration of 3.55×10^3 cells/0.1 ml/well (1×10^4 cells/cm^2), and pre-cultured for 2 days at 37° C. in a vapor phase consisting of 5% CO2 and 95% air. […] The results were expressed with the optical absorbance that indicated a positive correlation with the number of cells. […]

[2] = test system: synovial cells (RASC) from rheumatoid arthritis (RA) patients; assay: Synovial cell proliferation inhibition (MTT method), RASC; assay type: cell-based, human; conditions: MTT on days 4, 8 and 12, HA/Zn and Na-HA 10-300 μg/ml, Zn at 1/10 of these, vs non-drug addition group
Protocol: as §1, §2, §3, §4

[3] = test system: matrix metalloproteinase MMP-9; assay: Suppression of MMP-9 in synovial cell culture supernatant (EIA); assay type: cell-based, human; conditions: for production of MMP-9 relative to control (non-drug addition = 100%): culture supernatant day 8, HA/Zn and Na-HA 100 μg/ml, Zn 10 μg/ml, divided by MTT absorbance
Protocol: Synovial cells were inoculated into culture dishes (diameter: 35 mm, Iwaki) to a concentration of 10×10^4 cells/2 ml/dish (1×10^4 cells/cm^2), and pre-cultured for 2 days at 37° C. in a vapor phase consisting of 5% CO2 and 95% air. Later, the media were replaced with media containing each drug, and the culture supernatants were sampled on day 8 of culturing under the same conditions followed by storage at −80° C. until measurement. The added concentrations of HA/Zn and Na-HA were 100 μg/ml (final concentration), while the concentration of Zn was 10 μg/ml (final concentration). The amount of matrix metalloproteinase MMP-9 in the supernatant was measured using EIA (Enzyme Immunoassay). In order to examine the results calculated as concentration in the supernatant per cell, the results were converted to values divided by the optical absorbance value of synovial cells by MTT at that time. In addition, this value was further expressed as a relative value to the control of the individual value of each drug addition group while assigning the control (non-drug addition group) a value of 100%.

[4] = test system: synovial cells (TASC) from traumatic arthritis (TA) patients; assay: Synovial cell proliferation inhibition (MTT method), TASC; assay type: cell-based, human; conditions: MTT on days 4, 8 and 12, HA/Zn and Na-HA 10-300 μg/ml, Zn at 1/10 of these, vs non-drug addition group
Protocol: as §1, §2, §3, §4

[5] = Systemic toxicity after subcutaneous administration, rats; assay type: in vivo; conditions: physically allowed maximum dose 200 mg/kg
Protocol: (§5) Administration methods normally performed for pharmaceuticals can be used for the hyaluronic acid/zinc complex of the present invention. Namely, the above-mentioned complex can be administered orally or parenterally, and administration by injection is particularly preferable. The effective dose of the hyaluronic acid/zinc complex of the present invention is 0.01 mg to 1 mg, and preferably 0.03 mg to 0.5 mg per joint per administration per person. […] The agent for treatment of arthritic disease and matrix metalloproteinase MMP-9 suppresser of the present invention can contain 0.001% to 1%, and preferably 0.01% to 0.5%, of the hyaluronic acid/zinc complex of the present invention with a routinely used pharmaceutical carrier. Examples of routinely used pharmaceutical carriers include bases typically used in therapeutic applications such as chitosan, starch, pectin, HPMC and sodium alginate, binders such as tragacanth gum, gum arabic, cornstarch and gelatin, vehicles such as crystalline cellulose and mannitol, disintegrating agents such as cornstarch, α-starch and alginic acid, lubricants such as magnesium stearate, sweeteners such as sucrose, lactose and saccharin, flavorings such as peppermint, mint and cherry, and antiseptics.

[6] = Systemic toxicity after subcutaneous administration, mice; assay type: in vivo; conditions: physically allowed maximum dose 200 mg/kg
Protocol: as §5

Row | Molecule | proliferation of synovial cells (inhibition) [1] | proliferation of synovial cells (inhibition) [2] | production of MMP-9 relative to control (non-drug addition = 100%) [3] | proliferation of synovial cells (inhibition) [4] | symptoms of systemic toxicity [5] | concentration at which MMP-9 is suppressed ([3]; synovial cells originating in rheumatoid arthritis, in vitro) | symptoms of systemic toxicity [6]
1 | [Cl-].[Cl-].[Zn+2] [Zn, zinc chloride] | significant inhibition | significant inhibition | 50% | significant inhibition |  |  | 
2 | complex of hyaluronic acid and zinc [HA/Zn] | significantly inhibited dependent on the amount added | significantly inhibited dependent on the amount added | 0% | significantly inhibited dependent on the amount added | not observed to cause symptoms of systemic toxicity | ≤ 100 µg/mL | not observed to cause symptoms of systemic toxicity
3 | sodium hyaluronate [Na-HA] | not significantly inhibited | not significantly inhibited | 100% | not significantly inhibited |  |  | 

Source: patent publication US6608043B1, “Remedies for joint diseases” (Takata Seiyaku Co., Ltd., priority 1999, dated 2003)
